From patent US11548875B2, “Inhibitor compounds for male contraception” (University of Washington, priority 2018, dated 2023)

Experiments:
ALDH1A2 [1] = target: T1, ALDH1A2 (Homo sapiens, UniProt O94788); assay: Cell-based enzyme assay, retinoic acid production in ALDH1A2/H1299 cells; details: cell-based
T1 sequence (O94788 1-518): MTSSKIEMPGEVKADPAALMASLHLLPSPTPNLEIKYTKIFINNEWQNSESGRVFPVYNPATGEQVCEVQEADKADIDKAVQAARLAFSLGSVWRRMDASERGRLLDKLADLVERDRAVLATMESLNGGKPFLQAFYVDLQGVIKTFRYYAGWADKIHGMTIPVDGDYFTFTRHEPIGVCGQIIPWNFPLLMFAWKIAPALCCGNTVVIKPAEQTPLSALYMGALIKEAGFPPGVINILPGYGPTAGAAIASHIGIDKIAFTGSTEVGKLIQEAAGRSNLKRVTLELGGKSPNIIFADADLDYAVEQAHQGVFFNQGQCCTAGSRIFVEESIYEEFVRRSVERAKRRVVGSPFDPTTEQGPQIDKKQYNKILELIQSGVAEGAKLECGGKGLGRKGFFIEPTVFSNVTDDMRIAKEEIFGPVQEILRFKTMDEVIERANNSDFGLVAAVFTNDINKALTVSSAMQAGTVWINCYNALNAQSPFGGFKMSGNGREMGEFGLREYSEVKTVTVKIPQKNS
Experimental: (§1) ALDH1A1 cDNA clone was purchased transfection-ready, and ALDH1A2 full-length cDNA was subcloned into pcDNA3, a mammalian expression vector. ALDH1A1 and ALDH1A2 were transfected into H1299 cells (CRL5803, ATCC) using Lipofectamine 3000 (Invitrogen) following the manufacturer's instructions. Stably transfected cells were selected with G418 (1.2 mg/ml) and referred to as ALDH1A1/H1299 and ALDH1A2/H1299. For the cell-based enzyme assays,
(§2) H1299 cells were routinely grown in RPMI-1640 (ATCC) supplemented with 10% fetal bovine serum (Atlanta Biologicals) in a 37 C, 5% CO2, moisture-saturated atmosphere. H1299, ALDH1A1/H1299 and ALDH1A2/H1299 cells were seeded into 12-well plates (1×10^5 cells/well) and grown for 2 days to confluence. Confluent cells were treated for 20 hours in the above media excluding serum with 2 μM all-trans-retinal, and varying concentrations of inhibitors. Serum-free media was used for the treatment period to avoid retinoic acid in serum. Retinoic acid concentrations were determined from cells and media, and specificity of inhibitors was determined by comparing retinoic acid levels in the presence and absence of the inhibitors in ALDH1A1- vs. ALDH1A2-expressing cells.

ALDH1A1 = target: T2, ALDH1A1 (Homo sapiens, UniProt P00352); assay: Cell-based enzyme assay, retinoic acid production in ALDH1A1/H1299 cells; details: cell-based
T2 sequence (P00352 1-501): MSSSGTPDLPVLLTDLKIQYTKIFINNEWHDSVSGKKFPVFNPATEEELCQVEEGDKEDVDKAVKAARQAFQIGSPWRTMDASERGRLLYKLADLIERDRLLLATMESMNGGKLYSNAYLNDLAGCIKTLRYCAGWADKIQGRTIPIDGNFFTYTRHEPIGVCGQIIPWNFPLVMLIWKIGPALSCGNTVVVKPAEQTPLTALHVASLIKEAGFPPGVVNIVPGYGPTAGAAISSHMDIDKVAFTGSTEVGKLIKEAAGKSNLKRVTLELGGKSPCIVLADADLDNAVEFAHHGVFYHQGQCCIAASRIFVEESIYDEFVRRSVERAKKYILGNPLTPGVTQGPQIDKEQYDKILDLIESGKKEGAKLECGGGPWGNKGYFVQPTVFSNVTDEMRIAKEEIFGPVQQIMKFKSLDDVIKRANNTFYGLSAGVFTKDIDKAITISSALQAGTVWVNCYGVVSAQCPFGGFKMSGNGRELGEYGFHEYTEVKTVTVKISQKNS
Experimental: as §1, §2

ALDH1A2 [2] = target: T1, ALDH1A2; assay: Inhibitor screening using purified enzymes: ALDH1A2 activity, retinoic acid production by HPLC (5 uM initial screen, then IC50); type: biochemical; set-up: histidine-tag (C); made in house; host or cells: bacterial expression (pET28 vector, IPTG induction); details: purified enzyme
Source text: (§3) ALDHs were cloned into bacterial expression vector for in vitro enzyme assays and into mammalian expression vectors for cell-based enzyme assays. Human ALDH1A1 cDNA and human ALDH2 cDNA were purchased from OriGene (SC321535) and Open Biosystems (MHS4771-99611182), respectively. and human ALDH1A2 cDNA was cloned from human testis RNA using RT-PCR (Population Division of the Department of Economic and Social Affairs of the United Nations Secretariat. World Population prospects: the 2008 revision. Available at http://www.un.org/esa/population/ (Retrieved Sep. 30, 2011)). For bacterial expression, an open reading frame of ALDH1A1 and ALDH2 were subcloned into the pETite vector (Lucigen) with a 5′ histidine-tag and that of ALDH1A2 into a pET28 vector (Novagen) with a 3′ histidine-tag. Correct frame and sequences were verified through DNA sequencing (UW DNA sequencing facility). ALDHs were induced with 1 mM IPTG and purified using His.Bind resin (Novagen, San Diego, Calif.) and stored in a buffer containing 20 mM Hepes (pH 8), 150 mM KCl and 1 mM EDTA as previously described (Fierce, Y., de Morais Vieira, M., Piantedosi, R., Wyss, A., Blaner, W. S., and Paik, J. (2008) In vitro and in vivo characterization of retinoid synthesis from beta-carotene. Archives of biochemistry and biophysics 472, 126-138).
ALDH1A1 and ALDH1A2 activity was determined as previously reported (Beedle M T, Stevison F, Zhong G, Topping T, Hogarth C, Isoherranen N, Griswold M D. Sources of All-Trans Retinal Oxidation Independent of the Aldehyde Dehydrogenase 1A Isozymes Exist in the Postnatal Testis. Biol Reprod. 2018 Sep. 21. doi: 10.1093/biolre/ioy200). Briefly, purified enzymes were incubated in a buffer containing 10 mM HEPES buffer (pH 8.0), 150 mM potassium chloride and 2 mM EDTA with 2 mM NAD. Retinoic acid production was determined using HPLC as previously reported (Amory J K, Muller C H, Shimshoni A J, Isoherranen N, Paik J, Moreb J S, Amory D W, Evanoff R, Goldstein A S, Griswold M D. Suppression of spermatogenesis by bisdichloroacetyldiamines is mediated by inhibition of testicular retinoic acid biosynthesis. Journal of Andrology 2011; 32(1):111-119). Inhibitors were diluted in DMSO and added to the reactions. […] For initial screening of inhibitors for ALDH1A2, 1 μg ALDH1A2, 5 μM all-trans-retinal and 5 μM inhibitors were incubated for 15 min at 37° C. […] For this purpose, 0.5 μg ALDH1A2 and […] were incubated for 5 minutes at 37° C. with varying concentrations of inhibitors. To determine specificity toward ALDH1A2, the IC50 for […]

ALDH2 = target: T3, ALDH2 (Homo sapiens, UniProt P05091); assay: Purified ALDH2 assay with propanal, NADH fluorescence; type: biochemical; details: purified enzyme
T3 construct: histidine-tag (N); made in house; host or cells: bacterial expression (pETite vector, IPTG induction)
T3 sequence (P05091 18-517): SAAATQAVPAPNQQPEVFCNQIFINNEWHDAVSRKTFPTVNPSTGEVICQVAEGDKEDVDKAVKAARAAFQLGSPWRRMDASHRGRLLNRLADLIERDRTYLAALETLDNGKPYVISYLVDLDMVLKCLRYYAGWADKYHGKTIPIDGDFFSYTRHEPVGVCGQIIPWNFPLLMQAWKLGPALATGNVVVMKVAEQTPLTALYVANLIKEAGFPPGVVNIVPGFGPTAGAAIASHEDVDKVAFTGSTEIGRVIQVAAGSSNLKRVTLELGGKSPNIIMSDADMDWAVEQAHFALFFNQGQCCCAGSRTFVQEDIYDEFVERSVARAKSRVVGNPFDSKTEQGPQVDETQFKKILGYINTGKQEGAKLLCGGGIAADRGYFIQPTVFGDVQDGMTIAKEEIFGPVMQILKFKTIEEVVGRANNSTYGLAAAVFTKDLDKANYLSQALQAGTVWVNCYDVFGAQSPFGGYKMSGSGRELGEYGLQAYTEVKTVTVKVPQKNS
Source text: as §3, with “126-138). […]” for “126-138).”
For this, 2 μg purified ALDH2, 20 μM propanal and varying concentrations of inhibitors were incubated at room temperature. Enzyme activity was determined by measuring fluorescence of NADH (Ex, 350 nm/Em, 460 nm) using a Victor3 plate reader (PerkinElmer), and initial velocity was calculated from two consecutive readings over 1 minute.

In the case of “1-(4-Hydroxymethylphenyl)-3-[4-(methylsulfonyl)phenyl]-N-(3-fluorophenyl)-1H-pyrazole-4-carboxamide [Compound 282]”, the EC50 (ALDH1A2 [1]) is reported as 0.24 µM and the EC50 (ALDH1A1) is reported as > 20 µM.

With “2-(Acetyloxy)phenyl 1-(4-fluorophenyl)-3-[4-(methylsulfonyl)phenyl]-1H-pyrazole-4-carboxylate [Compound 293]” the EC50 (ALDH1A2 [1]) was 0.07 µM and the EC50 (ALDH1A1) was > 20 µM.

Work on CC(=O)Oc1ccc(-c2nn(-c3ccccc3)cc2C=O)cc1 [Cmpd 35] yielded an EC50 (ALDH1A2 [1]) of 0.952 µM and an EC50 (ALDH1A1) of 3.38 µM.

With CS(=O)(=O)c1ccc(-c2nn(-c3cccc(Cl)c3)cc2C(=O)Nc2ccccc2O)cc1 [Compound 240, N-(2-Hydroxyphenyl)-3-[4-(methylsulfonyl)phenyl]-1-(3-chlorophenyl)-1H-pyrazole-4-carboxamide] the EC50 (ALDH1A2 [1]) was < 0.5 µM, the IC50 (ALDH1A2 [2]) was 0.036 µM and the IC50 (ALDH2) was 14.2 µM.

In the case of CS(=O)(=O)c1ccc(-c2nn(-c3ccc(F)cc3)cc2C(=O)Nc2ccccc2O)cc1 [Compound 242, N-(2-Hydroxyphenyl)-3-[4-(methylsulfonyl)phenyl]-1-(4-fluorophenyl)-1H-pyrazole-4-carboxamide], the EC50 (ALDH1A2 [1]) is reported as < 0.5 µM, the IC50 (ALDH1A2 [2]) is reported as 0.045 µM and the IC50 (ALDH2) is reported as 6.32 µM.

CS(=O)(=O)c1ccc(-c2nn(-c3ccccc3)cc2C(=O)Nc2cccnc2)cc1 [Compound 253, 3-[4-(Methylsulfonyl)phenyl]-1-phenyl-N-(pyridin-3-yl)-1H-pyrazole-4-carboxamide] showed an IC50 (ALDH1A2 [2]) of 0.059 µM and an IC50 (ALDH2) of 10 µM.

CS(=O)(=O)c1ccc(-c2nn(-c3cccc(C#N)c3)cc2C(=O)Nc2cccc(C(F)(F)F)c2)cc1 [Compound 270, 1-(3-Cyanophenyl)-N-(3-trifluoromethylphenyl)-3-[4-(methylsulfonyl)phenyl]-1H-pyrazole-4-carboxamide] gave an IC50 (ALDH1A2 [2]) of 0.346 µM and an IC50 (ALDH2) of 91.7 µM.

CS(=O)(=O)c1ccc(-c2nn(-c3ccc(C(N)=O)cc3)cc2C(=O)Nc2cccc(F)c2)cc1 [Compound 283, 1-(4-Carbomylphenyl)-3-[4-(methylsulfonyl)phenyl]-N-(3-fluorophenyl)-1H-pyrazole-4-carboxamide] gave an EC50 (ALDH1A2 [1]) of 0.4 µM and an EC50 (ALDH1A1) of 18.4 µM.

CS(=O)(=O)c1ccc(-c2nn(-c3ccc(C(=O)NO)cc3)cc2C(=O)Nc2cccc(F)c2)cc1 [Compound 284, 1-(4-Hydroxycarbomylphenyl)-3-[4-(methylsulfonyl)phenyl]-N-(3-fluorophenyl)-1H-pyrazole-4-carboxamide] gave an EC50 (ALDH1A2 [1]) of 0.04 µM and an EC50 (ALDH1A1) of 1.93 µM.

In the case of CNC(=O)c1ccc(-n2cc(C(=O)Nc3cccc(F)c3)c(-c3ccc(S(C)(=O)=O)cc3)n2)cc1 [Compound 285, 1-(4-Methylcarbomylphenyl)-3-[4-(methylsulfonyl)phenyl]-N-(3-fluorophenyl)-1H-pyrazole-4-carboxamide], the EC50 (ALDH1A2 [1]) is reported as 0.25 µM and the EC50 (ALDH1A1) is reported as 0.81 µM.

In the case of CN(C)C(=O)c1ccc(-n2cc(C(=O)Nc3cccc(F)c3)c(-c3ccc(S(C)(=O)=O)cc3)n2)cc1 [Compound 286, 1-(4-Dimethylcarbomylphenyl)-3-[4-(methylsulfonyl)phenyl]-N-(3-fluorophenyl)-1H-pyrazole-4-carboxamide], the EC50 (ALDH1A2 [1]) is reported as 0.11 µM and the EC50 (ALDH1A1) is reported as > 20 µM.

O=C(c1sccc1Cl)N1CCN(c2ccc([N+](=O)[O-])c(N3CCCC3)c2)CC1 [Compound 324, {4-[4-Nitro-3-(pyrrolidin-1-yl)phenyl]piperazin-1-yl}(3-chlorothiophen-2-yl)methanone] gave an IC50 (ALDH1A2 [2]) of 0.142 µM and an IC50 (ALDH2) of 5.22 µM.

O=C(c1ccc(O)s1)N1CCN(c2ccc([N+](=O)[O-])c(N3CCCC3)c2)CC1 [Compound 335] showed an IC50 (ALDH1A2 [2]) of 0.342 µM and an IC50 (ALDH2) of 2.07 µM.
